From patent US20160168541A1, “TRANSDUCIBLE MATERIALS FOR CELL REPROGRAMMING” (VIVOSCRIPT, INC., priority 2013, published 2016)
“Also recorded” adds a separate entry of the source.

Tests used:
Assay type in all cases: cell-based
[1] = tested on: Oct4 target genes (Oct4, Sox2, Nanog, Smad3 and Smad4); assay: RT-qPCR of Oct4 target genes in HepG2 cells treated with transducible materials; settings: serum-free medium, 6 hours, normalized by GAPDH, sGFP-treated sample set as 1.00
Description: FIG. 2. Comparison of sGFP-Oct4(mNES) and sGFP-Oct4 protein in regulating the expression of downstream genes. HepG2 cells were treated with sGFP, sGFP-Oct4 or sGFP-Oct4(mNES) in serum-free medium for 6 hours. RNA was isolated and RT-qPCR was performed. The expression of each gene was normalized by the expression level of GAPDH. The relative expression level of each gene in the control condition (sGFP-treated sample) was set as 1.00.
HepG2 cells were treated with transducible materials comprising isolated polypeptide of sGFP, sGFP-Oct4-11R or sGFP-Oct4(mNES)-11R in serum-free medium for 6 hours. RNA was extracted from each sample using RNeasy Micro Kit from Qiagen and cDNA was synthesized through reverse transcription reaction. RT-qPCRs of five Oct4 target genes (Oct4, Sox2, Nanog, Smad3 and Smad4 were performed using a pair of primers specific to each target gene and a hydrolysis probe from Roche Universal ProbeLibrary on LightCycler 480 II. The expression of each gene was normalized by the expression level of GAPDH. The relative expression level of each gene in the control condition (sGFP-treated sample) was set as 1.00.

[2] = tested on: adult human fibroblasts; assay: Live fluorescent imaging of uptake and nuclear occupancy of sGFP polypeptides in fibroblasts; settings: 10 μg/ml
Description: FIG. 5. Live fluorescent imaging of human fibroblasts after culturing in 10 μg/ml of first generation sGFP-MyoD-11R.
In the first generation of transducible materials, a sGFP transduction domain and a poly-arginine (11R) were fused to the N-terminus and C-terminus of MyoD through a linker (SEQ ID NO: 99) respectively to generate sGFP-MyoD-11R (SEQ ID NO: 156). […] The nuclear entry of sGFP-MyoD-11R was increased by using 100 μg/ml sGFP-MyoD-11R and electroporation, which successful reprogrammed very low percentage (around 10%) of FBs to MyoD+ myoblasts.
The second generation of transducible materials, a strong classic nuclear localization sequence (cNLS), the SV40 T antigen NLS, was added in-between sGFP and MyoD-11R (SEQ ID NO: 157 and FIG. 3).
Leptomycin B (leptoB), a nuclear export blocker, was added at 5 nM to adult fibroblasts to enhance nuclear occupancy of sGFP-NLS-MyoD-11R. […] Higher concentrations of leptoB might have off-target effects, which limits its use in enhancing nuclear retention of specific polypeptides.
In the third generation of transducible materials, the NES of MyoD was mutated to generate sGFP-NLS-MyoD(mNES)-11R (SEQ ID NO: 127 and FIG. 3) to further improve their nuclear occupancy and transcription efficiency. […] These SCs were positive for Myf5 (>90% of SCs) at 22 days after transduction (FIG. 8B). Also, these SCs could be induced to differentiate to myoblasts with downregulation of Pax7 and upregulation of MyoD via a published myogenic protocol (Cosgrove et al, Rejuvenation of the muscle stem cell population restores strength to injured aged muscles, Nat Med., 20:255-64 (2014)). […] Thus, by using sGFP-NLS-MyoD(mNES)-11R, efficient fibroblasts conversion to SMPCs can be achieved in a controlled fashion. The risk of extensive durations of MyoD activation is completely avoided. Most myogenic analysis was performed at >2 weeks after polypeptide transduction to avoid confounding issues from added exogenous polypeptides. In summary, adult fibroblast can be successfully reprogrammed to SCs using sGFP-NLS-MyoD(mNES)-11R with defined kinetics (2-day nuclear occupancy and 2-3 week peptide lifespan).

[3] = tested on: adult human fibroblasts; assay: Reprogramming of fibroblasts to skeletal muscle progenitor cells (satellite cells, myoblasts)
Description: FIG. 4. Schematic of experimental protocol to convert fibroblasts to myoblasts with transducible materials derived from MyoD.
In this example, three versions of transducible materials derived from MyoD (the master myogenic transcription factor) were generated and their effects on reprogramming fibroblast cells into skeletal muscle progenitor cells (SMPCs) were compared.
Most myogenic analysis was performed at >2 weeks after polypeptide transduction to avoid confounding issues from added exogenous polypeptides.

Row | Substance | expression of Oct4 target genes [1] | time the polypeptide stays in the nucleus ([2]; leptomycin B 5 nM) [h] | nuclear occupancy (GFP signal in nuclei) with leptomycin B ([2]; leptomycin B 5 nM, third generation at 30 min, 24 hours and 48 hours) | nuclear occupancy (localization of GFP signal) ([2]; no leptomycin B) | change of nuclear occupancy with time ([2]; no leptomycin B, 24 hours) | reprogramming of fibroblasts to SMPCs ([3]; 10 μg/ml, no leptomycin B) | reprogramming efficiency of adult fibroblasts to SMPCs ([3]; continuous presence of leptomycin B 5 nM)
1 | sGFP-Oct4-11R: Fusion polypeptide of supercharged GFP, Oct4 and 11R, SEQ ID NO: 155, unmutated NES | does not increase |  |  |  |  |  | 
2 | sGFP-NLS-MyoD-11R: Second generation: SV40 T antigen NLS added between sGFP and MyoD-11R, SEQ ID NO: 157 |  | > 24 | slightly improves the nuclear occupancy | more transducible materials were observed in nuclei; also recorded: GFP signal were observed in the nuclei | significantly decreased within 24 hours; also recorded: GFP signal in the nuclei decreased after 24 hours | low and inconsistent | around 5%
